Laboratory results reported in publication PMC12314052 (Nature Communications, 2025).
Numbering of substitutions follows the chain as printed. pKd: −log10 of the molar value.

Legend:
[1] = cited from earlier work
[2] = target: T1, hM5 mAChR (Homo sapiens, UniProt P08912, A113V/G152A/L156V); experiment: Inositol monophosphate (IP1) accumulation assay, ML380-ACh interaction; assay type: cell-based; settings: M5 EH4 pocket mutant (A113V, G152A, L156V), CHO cells
T1 construct: expressed in transfected cells
T1 sequence (P08912 1-532 A113V/G152A/L156V): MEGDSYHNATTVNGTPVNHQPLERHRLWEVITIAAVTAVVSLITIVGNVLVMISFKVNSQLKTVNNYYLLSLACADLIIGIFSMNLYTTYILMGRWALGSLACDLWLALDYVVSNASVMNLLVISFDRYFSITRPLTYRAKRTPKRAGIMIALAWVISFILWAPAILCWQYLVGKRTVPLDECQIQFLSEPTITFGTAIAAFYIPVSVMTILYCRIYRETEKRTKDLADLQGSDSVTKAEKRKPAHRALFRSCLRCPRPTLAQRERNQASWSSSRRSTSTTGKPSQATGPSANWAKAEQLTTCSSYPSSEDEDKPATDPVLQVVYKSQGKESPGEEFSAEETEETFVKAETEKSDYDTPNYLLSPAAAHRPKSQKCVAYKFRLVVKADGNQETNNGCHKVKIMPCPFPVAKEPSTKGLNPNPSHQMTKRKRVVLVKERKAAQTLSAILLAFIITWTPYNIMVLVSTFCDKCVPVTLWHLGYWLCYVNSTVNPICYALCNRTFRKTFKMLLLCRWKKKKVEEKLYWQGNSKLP
Procedure: (§1) FlpIn CHO cells stably expressing either WT or mutant hM5 mAChR were seeded in clear, flat bottom 96-well plates at a density of 10,000−25,000 cells per well (depending on the cell line) one day prior to the assay. The optimal cell density for each line was chosen based on achieving an IP1 response that fell within the linear range of the IP1 standard curve. On the assay day, the medium was replaced with stimulation buffer (Hanks’ balanced salt solution (HBSS) containing 10 mM HEPES, 1.3 mM CaCl2, and 30 mM LiCl, pH 7.4) and allowed to incubate for 60 minutes at 37 °C before ligand stimulation. After this pre-incubation, the buffer was replaced, and cells were exposed to ligands for 60 minutes at 37 °C in a 5% CO2 atmosphere, with a total assay volume of 100 μL. Following the 60-minute stimulation, ligands were removed by rapid removal of buffer. Cells were lysed by freeze-thawing in 30 μL of stimulation buffer. IP1 accumulation was then quantified using the HTRF IP-One assay kit (Cisbio), with fluorescence measured on an EnVision multilabel plate reader (PerkinElmer).
(§2) All data were analysed using GraphPad Prism 10 (GraphPad Software, San Diego, CA). The interaction between orthosteric agonist and allosteric modulator in functional assays was analysed using an operational model of allosterism to determine functional modulation (log αβ) and affinity (pKB) parameters. Radioligand saturation binding experiments with [^3H]-NMS to determine Bmax and pKD values were determined using a one site – specific binding equation in Prism 10^31. For the radioligand binding interaction of orthosteric agonist with various concentrations of allosteric modulator, the data were fit to an allosteric ternary complex model to derive pKB and α binding cooperativity parameters. All affinity, potency, cooperativity, and efficacy parameters were estimated as logarithms. To ensure model convergence in all instances, allosteric parameters were determined from the respective allosteric models, which were globally fitted to all individual datasets for each allosteric modulator at each receptor construct. […]

[3] = system: hM5 mAChR; experiment: as above; assay type: cell-based, human; settings: ECV allosteric site alanine mutants of M5 mAChR, CHO cells
Procedure: as §1, §2

[4] = target: T2, hM5 mAChR (Homo sapiens, UniProt P08912); experiment: as above; assay type: cell-based; settings: WT M5 mAChR, CHO cells
T2 construct: expressed in transfected cells
T2 sequence (P08912 1-532): T1 sequence (P08912 1-532 A113V/G152A/L156V) with V113A, A152G, V156L
Procedure: as §1, §2

[5] = system: hM5 mAChR; experiment: [3H]-NMS equilibrium radioligand binding, interaction of ACh and allosteric modulator; design: species or system human
Procedure: FlpIn CHO cells stably expressing WT hM5 mAChR or mutants were plated at 25,000 cells per well in 96-well isoplates (PerkinElmer Life Sciences) and incubated overnight at 37 °C in a 5% CO2 incubator. The following day, the cells were washed with PBS and incubated in 20 mM HEPES, 100 mM NaCl, 10 mM MgCl2, pH 7.4. For saturation binding experiments, the cells were incubated with varying concentrations of the orthosteric antagonist [^3H]-N-methylscopolamine ([^3H]-NMS; specific activity, 70 Ci/mmol, Perkin Elmer) in a final volume of 100 μL for 6 hours at room temperature. […] Radioactivity was measured by adding 100 μL of Optiphase Supermix scintillation fluid (PerkinElmer) and counted using a MicroBeta^2 Plate Counter (PerkinElmer Life Sciences).
All data were analysed using GraphPad Prism 10 (GraphPad Software, San Diego, CA). The interaction between orthosteric agonist and allosteric modulator in functional assays was analysed using an operational model of allosterism to determine functional modulation (log αβ) and affinity (pKB) parameters. Radioligand saturation binding experiments with [^3H]-NMS to determine Bmax and pKD values were determined using a one site – specific binding equation in Prism 10^31. […]

[6] = target: T3, ACh-bound M5 mAChR (Homo sapiens, UniProt P08912); experiment: Binding affinity for the ACh-bound receptor (chemical probe statement); settings: determined in this study and others
T3 sequence (P08912 1-532): T1 sequence (P08912 1-532 A113V/G152A/L156V) with V113A, A152G, V156L

[7] = system: Gαq-coupled mAChRs (M1, M3, M5); settings: M1, M3, M5 mAChRs ref 27; cited from earlier work

Compound | CNS penetration [1] | Partition coefficients ([1]; limited in vivo utility ref 25) | Change in ML380 affinity (pKB) compared to WT [2] | ML380 function at ECV alanine mutants [3] | Activity of ML380 and cooperativity with ACh [4] | ML380 cooperativity with ACh versus WT ([5]; M5/M2 TM1,7,h8 chimera) | ML380's ability to modulate ACh binding ([5]; M5/M2 TM2,3,4 and M5/M2 TM3,4,5 chimeras (swapping TM2-5)) | pKd [6] | Effect on ACh signalling [7]
CCN(Cc1ccccc1C(F)(F)F)C(=O)C1CCN(S(=O)(=O)c2ccc3[nH]ncc3c2)CC1 [ML380, 1-((1H-indazol-5-yl)sulfoneyl)-N-ethyl-N-(2-(trifluoromethyl)benzyl)piperidine-4-carboxamide] | penetrate the CNS | poor | no significant change in affinity | retained its ability to bind, activate, and modulate receptor function | both agonism and positive cooperativity with ACh | increased | completely abolished | ~6.24 | 
O=C1C(=O)N(Cc2ccc(Br)cc2)c2ccccc21 [VU0119498] |  |  |  |  |  |  |  |  | enhanced
